Experimental data published in ChEMBL document CHEMBL1909046, “DrugMatrix in vitro pharmacology data”.

Assays:
[1] = biological target: T1, Receptor-type tyrosine-protein phosphatase C (Homo sapiens, UniProt P08575); set-up: species or system Escherichia coli;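 further: inhibition of CD45 enzyme activity measured using DiFMUP as substrate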
T1 sequence (P08575 whole entry): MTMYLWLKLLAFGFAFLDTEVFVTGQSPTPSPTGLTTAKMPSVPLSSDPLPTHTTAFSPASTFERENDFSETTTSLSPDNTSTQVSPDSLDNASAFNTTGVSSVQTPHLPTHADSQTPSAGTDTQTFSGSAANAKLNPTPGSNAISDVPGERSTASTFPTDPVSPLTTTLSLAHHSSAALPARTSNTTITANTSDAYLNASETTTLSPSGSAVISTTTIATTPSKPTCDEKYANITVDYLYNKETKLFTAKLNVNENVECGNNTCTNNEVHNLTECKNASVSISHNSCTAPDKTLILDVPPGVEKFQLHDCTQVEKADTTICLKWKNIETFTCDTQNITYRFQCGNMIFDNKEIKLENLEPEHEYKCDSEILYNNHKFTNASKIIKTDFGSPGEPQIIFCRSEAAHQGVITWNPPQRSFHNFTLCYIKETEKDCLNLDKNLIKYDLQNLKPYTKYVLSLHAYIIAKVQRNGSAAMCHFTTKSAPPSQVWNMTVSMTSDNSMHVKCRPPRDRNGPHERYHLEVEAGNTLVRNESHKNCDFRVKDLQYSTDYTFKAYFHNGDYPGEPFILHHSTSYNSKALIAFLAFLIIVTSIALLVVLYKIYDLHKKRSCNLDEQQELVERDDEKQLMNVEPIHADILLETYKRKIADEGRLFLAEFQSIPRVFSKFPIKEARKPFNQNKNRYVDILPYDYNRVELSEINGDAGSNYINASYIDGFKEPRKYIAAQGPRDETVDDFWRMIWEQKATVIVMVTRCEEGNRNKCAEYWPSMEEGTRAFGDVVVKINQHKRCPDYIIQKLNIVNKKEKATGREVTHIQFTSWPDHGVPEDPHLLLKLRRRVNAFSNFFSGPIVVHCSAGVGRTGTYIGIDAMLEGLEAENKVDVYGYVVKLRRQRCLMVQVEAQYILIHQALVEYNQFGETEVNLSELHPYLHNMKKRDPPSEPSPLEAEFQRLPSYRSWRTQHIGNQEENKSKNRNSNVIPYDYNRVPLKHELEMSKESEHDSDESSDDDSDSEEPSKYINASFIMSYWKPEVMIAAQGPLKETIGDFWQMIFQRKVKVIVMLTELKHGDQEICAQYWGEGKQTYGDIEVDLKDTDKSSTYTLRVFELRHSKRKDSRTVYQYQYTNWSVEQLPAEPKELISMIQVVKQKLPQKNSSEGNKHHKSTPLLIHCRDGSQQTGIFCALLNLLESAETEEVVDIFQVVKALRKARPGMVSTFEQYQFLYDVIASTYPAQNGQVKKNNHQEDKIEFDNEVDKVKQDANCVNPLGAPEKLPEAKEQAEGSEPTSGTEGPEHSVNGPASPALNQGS

[2] = biological target: Prostaglandin G/H synthase 1 (Homo sapiens, UniProt P23219); assay: biochemical; type: tissue-based, Platelet;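 further: inhibition of COX-1 enzyme activity, with arachidonic acid supplied as substrate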
[3] = biological target: T2, C-C chemokine receptor type 4 (Homo sapiens, UniProt P51679); type: cell membranes, Membrane; details: chem-1
T2 sequence (P51679 whole entry): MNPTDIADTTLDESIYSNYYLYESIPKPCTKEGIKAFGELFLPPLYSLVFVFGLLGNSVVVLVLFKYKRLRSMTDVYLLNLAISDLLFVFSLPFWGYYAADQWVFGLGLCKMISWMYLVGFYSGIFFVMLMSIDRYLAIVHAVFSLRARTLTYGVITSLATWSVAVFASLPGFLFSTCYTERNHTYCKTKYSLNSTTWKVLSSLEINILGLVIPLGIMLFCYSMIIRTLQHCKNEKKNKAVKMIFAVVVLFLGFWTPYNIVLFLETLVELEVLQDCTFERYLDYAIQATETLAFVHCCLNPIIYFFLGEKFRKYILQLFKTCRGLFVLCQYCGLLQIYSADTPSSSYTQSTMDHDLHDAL

[4] = biological target: 5-hydroxytryptamine receptor 2B (Homo sapiens, UniProt P41595); type: cell membranes, CHO-K1, Membrane
Substance-K receptor = biological target: T3, Substance-K receptor (Homo sapiens, UniProt P21452); type: cell membranes, CHO, Membrane; details: for Ki: read-out: Ki
T3 sequence (P21452 whole entry): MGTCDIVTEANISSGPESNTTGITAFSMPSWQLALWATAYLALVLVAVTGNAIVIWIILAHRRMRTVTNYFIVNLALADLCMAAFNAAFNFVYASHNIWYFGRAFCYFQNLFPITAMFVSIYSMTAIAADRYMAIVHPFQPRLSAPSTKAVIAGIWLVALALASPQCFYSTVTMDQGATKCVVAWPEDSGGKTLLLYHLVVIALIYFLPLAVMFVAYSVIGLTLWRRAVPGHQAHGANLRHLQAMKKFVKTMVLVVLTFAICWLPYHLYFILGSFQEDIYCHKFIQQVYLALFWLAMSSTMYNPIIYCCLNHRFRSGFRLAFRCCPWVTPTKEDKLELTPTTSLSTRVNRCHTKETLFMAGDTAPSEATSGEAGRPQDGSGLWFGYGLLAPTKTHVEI

Cytochrome P450 2E1 = Cytochrome P450 2E1 (Homo sapiens, UniProt P05181); details: bti-tn-5b1-4
Cytochrome P450 2D6 = Cytochrome P450 2D6 (Homo sapiens, UniProt P10635); details: bti-tn-5b1-4
Further: in other assays of this panel Not Active means under 50% inhibition at 10 µM.

Cytochrome P450 2E1, sequence (P05181 whole entry): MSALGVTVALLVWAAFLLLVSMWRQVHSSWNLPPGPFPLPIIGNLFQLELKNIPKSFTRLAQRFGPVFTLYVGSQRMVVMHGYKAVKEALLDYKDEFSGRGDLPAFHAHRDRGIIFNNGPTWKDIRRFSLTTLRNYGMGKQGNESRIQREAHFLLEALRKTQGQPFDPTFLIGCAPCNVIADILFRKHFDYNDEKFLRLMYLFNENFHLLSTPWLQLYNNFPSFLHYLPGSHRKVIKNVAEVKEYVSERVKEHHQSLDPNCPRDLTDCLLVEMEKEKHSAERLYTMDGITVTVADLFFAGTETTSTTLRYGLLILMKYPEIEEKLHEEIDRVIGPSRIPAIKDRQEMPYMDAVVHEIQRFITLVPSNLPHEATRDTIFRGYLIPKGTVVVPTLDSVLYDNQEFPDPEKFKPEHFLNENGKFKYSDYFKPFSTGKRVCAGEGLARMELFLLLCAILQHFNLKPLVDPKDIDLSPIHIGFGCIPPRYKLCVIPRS
Cytochrome P450 2D6, sequence (P10635 whole entry): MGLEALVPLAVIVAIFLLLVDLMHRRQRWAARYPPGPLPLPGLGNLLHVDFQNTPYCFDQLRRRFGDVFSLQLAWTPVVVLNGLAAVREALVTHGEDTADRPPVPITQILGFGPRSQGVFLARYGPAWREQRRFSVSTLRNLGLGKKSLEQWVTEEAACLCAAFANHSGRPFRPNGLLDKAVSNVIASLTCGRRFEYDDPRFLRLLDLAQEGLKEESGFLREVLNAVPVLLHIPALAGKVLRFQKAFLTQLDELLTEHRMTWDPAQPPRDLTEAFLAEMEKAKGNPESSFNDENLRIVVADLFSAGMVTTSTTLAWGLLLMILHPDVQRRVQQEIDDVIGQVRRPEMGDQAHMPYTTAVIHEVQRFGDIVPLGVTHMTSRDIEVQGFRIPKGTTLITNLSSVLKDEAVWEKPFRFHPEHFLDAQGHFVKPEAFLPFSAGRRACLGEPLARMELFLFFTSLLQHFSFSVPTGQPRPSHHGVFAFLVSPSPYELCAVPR
Prostaglandin G/H synthase 1, sequence (P23219 whole entry): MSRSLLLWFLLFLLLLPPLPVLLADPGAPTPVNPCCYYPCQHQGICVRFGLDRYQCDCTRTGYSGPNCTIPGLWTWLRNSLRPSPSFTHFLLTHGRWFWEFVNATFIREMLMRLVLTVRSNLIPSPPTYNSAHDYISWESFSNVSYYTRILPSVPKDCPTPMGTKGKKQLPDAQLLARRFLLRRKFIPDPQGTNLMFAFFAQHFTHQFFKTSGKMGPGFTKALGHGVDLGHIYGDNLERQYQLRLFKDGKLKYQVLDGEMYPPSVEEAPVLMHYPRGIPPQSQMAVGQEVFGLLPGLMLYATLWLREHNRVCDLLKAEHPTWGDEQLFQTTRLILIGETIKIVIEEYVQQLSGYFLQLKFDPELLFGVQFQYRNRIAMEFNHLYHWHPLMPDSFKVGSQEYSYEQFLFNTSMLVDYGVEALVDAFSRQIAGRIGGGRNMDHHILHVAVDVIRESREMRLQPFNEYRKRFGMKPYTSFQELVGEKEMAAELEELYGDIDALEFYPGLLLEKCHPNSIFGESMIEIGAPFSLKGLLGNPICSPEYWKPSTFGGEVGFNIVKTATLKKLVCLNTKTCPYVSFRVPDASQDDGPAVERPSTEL
5-hydroxytryptamine receptor 2B, sequence (P41595 whole entry): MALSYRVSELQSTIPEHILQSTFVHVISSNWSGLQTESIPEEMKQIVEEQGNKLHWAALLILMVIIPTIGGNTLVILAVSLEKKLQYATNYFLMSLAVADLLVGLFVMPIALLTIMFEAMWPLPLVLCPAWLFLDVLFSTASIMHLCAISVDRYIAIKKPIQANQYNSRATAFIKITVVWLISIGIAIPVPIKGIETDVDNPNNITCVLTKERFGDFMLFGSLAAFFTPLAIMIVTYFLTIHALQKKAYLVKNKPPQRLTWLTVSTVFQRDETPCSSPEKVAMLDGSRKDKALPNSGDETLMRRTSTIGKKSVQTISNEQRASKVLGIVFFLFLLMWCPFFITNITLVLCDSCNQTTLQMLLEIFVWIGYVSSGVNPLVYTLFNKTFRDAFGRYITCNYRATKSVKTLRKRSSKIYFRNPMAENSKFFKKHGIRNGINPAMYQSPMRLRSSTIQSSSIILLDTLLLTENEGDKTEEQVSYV

SMILES	IC50 [1]	IC50 ([2]; platelet)	IC50 [3]	IC50 ([4]; read-out: IC50)	Ki ([4]; read-out: Ki)	IC50 (Substance-K receptor; cho)	IC50 (Cytochrome P450 2E1)	Ki (Cytochrome P450 2E1)	IC50 (Cytochrome P450 2D6)	Ki (Cytochrome P450 2D6)	IC50 ([4]; cho-k1)	IC50 (Substance-K receptor; read-out: IC50)	Ki (Substance-K receptor)	IC50 ([2]; read-out: IC50)	Ki ([4]; cho-k1)
Cc1c(C)c2c(c(C)c1O)CCC(C)(CN1CCN(c3cc(N4CCCC4)nc(N4CCCC4)n3)CC1)O2 (stereo not given)	Not Active	Not Active	Not Active	519 nM	330 nM	Not Active	–	–	–	–	–	–	–	–	–
COc1ccc(CCN(C)CCCC(C#N)(c2ccc(OC)c(OC)c2)C(C)C)cc1OC (stereo not given)	Not Active	Not Active	Not Active	–	–	Not Active	Not Active	Not Active	Not Active	Not Active	–	–	–	–	–
CC(C)Cc1ccc([C@@H](C)C(=O)O)cc1 [(R)-IBUPROPHEN]	Not Active	Not Active	Not Active	–	–	Not Active	Not Active	Not Active	Not Active	Not Active	Not Active	–	–	–	–
CN(C)CCOC(c1ccccc1)c1ccccc1 [DIPHENHYDRAMINE]	Not Active	Not Active	Not Active	–	–	Not Active	–	–	–	–	–	–	–	–	–
Clc1ccc(COC(Cn2ccnc2)c2ccc(Cl)cc2Cl)cc1 (stereo not given) [ECONAZOLE]	Not Active	Not Active	Not Active	–	–	–	Not Active	Not Active	–	–	–	6030 nM	2010 nM	–	–
CCN(CC)CCOc1ccc(/C(=C(/Cl)c2ccccc2)c2ccccc2)cc1 [ENCLOMIPHENE]	Not Active	–	Not Active	–	–	–	Not Active	Not Active	–	–	–	4520 nM	1510 nM	346 nM	–
Fc1ccc(C(c2ccc(F)cc2)N2CCN(C/C=C/c3ccccc3)CC2)cc1 [FLUNARIZINE]	Not Active	Not Active	Not Active	–	–	Not Active	Not Active	Not Active	Not Active	Not Active	–	–	–	–	–
CNCCC(Oc1ccc(C(F)(F)F)cc1)c1ccccc1 (stereo not given) [FLUOXETINE]	Not Active	Not Active	Not Active	–	–	Not Active	Not Active	Not Active	–	–	Not Active	–	–	–	–
Cc1ccc(NC(=O)c2ccc(CN3CCN(C)CC3)cc2)cc1Nc1nccc(-c2cccnc2)n1 [IMATINIB]	Not Active	Not Active	Not Active	–	–	Not Active	Not Active	Not Active	Not Active	Not Active	Not Active	–	–	–	–
CC(C)Oc1ccc2c(=O)c(-c3ccccc3)coc2c1 [IPRIFLAVONE]	Not Active	–	Not Active	–	–	Not Active	Not Active	Not Active	Not Active	Not Active	Not Active	–	–	–	–
CC(C)NCC(O)c1ccc(O)c(O)c1 (stereo not given) [ISOPROTERENOL]	Not Active	Not Active	Not Active	–	–	Not Active	Not Active	Not Active	Not Active	Not Active	Not Active	–	–	–	–
CNC1(c2ccccc2Cl)CCCCC1=O (stereo not given) [KETAMINE]	Not Active	Not Active	Not Active	–	–	Not Active	Not Active	Not Active	Not Active	Not Active	Not Active	–	–	–	–
N#Cc1ccc(C(c2ccc(C#N)cc2)n2cncn2)cc1 [LETROZOLE]	Not Active	Not Active	Not Active	–	–	Not Active	Not Active	Not Active	Not Active	Not Active	Not Active	–	–	–	–
CCN1CCC[C@H]1CNC(=O)c1cc(S(N)(=O)=O)ccc1OC [LEVOSULPIRIDE]	Not Active	Not Active	Not Active	–	–	Not Active	Not Active	Not Active	Not Active	Not Active	Not Active	–	–	–	–
CCN(CC)CC(=O)Nc1c(C)cccc1C [LIDOCAINE]	Not Active	Not Active	Not Active	–	–	Not Active	Not Active	Not Active	–	–	Not Active	–	–	–	–
O=C1Nc2ccc(Cl)cc2C(c2ccccc2Cl)=NC1O (stereo not given) [LORAZEPAM]	Not Active	Not Active	Not Active	–	–	Not Active	Not Active	Not Active	Not Active	Not Active	Not Active	–	–	–	–
CO[C@@H]1[C@@H](OC)[C@H](C)[C@@](O)(CC(=O)O)O[C@H]1[C@H](C)[C@H]1O[C@@]2(CC[C@@](C)([C@H]3CC[C@@](C)([C@@H]4O[C@@H]([C@H]5O[C@](C)(O)[C@H](C)C[C@@H]5C)C[C@@H]4O[C@@H]4C[C@H](OC)[C@@H](OC)[C@H](C)O4)O3)O2)C[C@H](O)[C@H]1C [MADURAMICIN ACID]	Not Active	Not Active	Not Active	33 nM	21 nM	Not Active	Not Active	Not Active	–	–	–	–	–	–	–
COc1c2occc2cc2ccc(=O)oc12 [METHOXSALEN]	Not Active	Not Active	Not Active	–	–	Not Active	Not Active	Not Active	Not Active	Not Active	Not Active	–	–	–	–
C[C@H]1C[C@@H]2[C@H]([C@@H](O)C[C@@]3(C)[C@H]2CC[C@]3(O)C(=O)CO)[C@@]2(C)C=CC(=O)C=C12 [METHYLPREDNISOLONE]	Not Active	Not Active	Not Active	–	–	Not Active	Not Active	Not Active	–	–	Not Active	–	–	–	–
Cc1cccc(C)c1OCC(C)N (stereo not given) [MEXILETINE]	Not Active	Not Active	Not Active	1140 nM	724 nM	Not Active	Not Active	Not Active	Not Active	Not Active	–	–	–	–	–
CN(C/C=C/C#CC(C)(C)C)Cc1cccc2ccccc12 [TERBINAFINE]	Not Active	Not Active	Not Active	–	–	Not Active	Not Active	Not Active	–	–	Not Active	–	–	–	–
CCCCNc1ccc(C(=O)OCCN(C)C)cc1 [TETRACAINE]	Not Active	Not Active	Not Active	–	–	Not Active	Not Active	Not Active	–	–	–	–	–	–	Not Active
Clc1ccccc1CN1CCc2sccc2C1 [TICLOPIDINE]	Not Active	Not Active	Not Active	–	–	Not Active	Not Active	Not Active	–	–	Not Active	–	–	–	–
